Data set [1] deals with HepG2 mammalian cell line. The data set can be described thus: Cytotoxicity assay (CellTiter-Blue). In kind it is cell-based. To be noted: Homo sapiens, HepG2, 24 hours of incubation, read-out: IC50 mammalian cell viability. How it is done: Cytotoxicity assay. Cytotoxicity of compounds 1 and 2 was assessed, after 24 hours of incubation in EMEM containing 10% fetal bovine serum, HepG2 mammalian cell line viability was evaluated using CellTiter-Blue Cell Viability Assay (Promega, WI, USA) according to the manufacturer’s instructions. Concentration-response curves were obtained by non-linear regression analysis using the GraphPad PRISM 6 software.
(In general: Resazurin is reduced to fluorescent resorufin, in cell work by metabolically active cells.)

Data set [2] has as its target CYP2C19 (Homo sapiens, UniProt P33261). The data set can be described thus: Inhibition of P450 isoenzymes. In kind it is in vitro ADME. The text has this: (§1) Inhibition of P450 isoenzymes.
For data set [3], the system named is CYP1A, CYP2B6, CYP2C8, CYP2C9, CYP2D6 and CYP3A4. Kind of data set: Inhibition of P450 isoenzymes. Type of data set: in vitro ADME. To be noted: human, read-out: % inhibition of CYP450 isoenzymes other than CYP2C19.
From the text: as §1

The subject of data set [4] is E. coli ATCC 25922. The data set can be described thus: Minimal bactericidal concentration. Type of data set: cell-based, Escherichia coli. As to conditions: for MBC: Escherichia coli, ATCC25922, ≥99.9% reduction of inoculum. How it is done: Minimal bactericidal concentrations (MBCs) were determined according to the procedure described by Knapp. Viable counts were performed after plates were incubated at 37°C for 24 hours. The MBC was defined as the lowest concentration that reduced the viability of the initial bacterial inoculum by ≥99.9%.

As a reminder, the IC50 is the point on the concentration scale where inhibition reaches its midpoint. As usually defined, the inhibition is the percentage by which the read-out fell short of the control. Broadly, the MBC is the smallest concentration meeting the test's criterion for killing.

Molecules are shown by their SMILES. Values after ≈ are worked out from the molar mass of the structure shown. Read-outs that look alike come from different tables or passages of the source.

Chain of CYP2C19 (P33261 whole entry): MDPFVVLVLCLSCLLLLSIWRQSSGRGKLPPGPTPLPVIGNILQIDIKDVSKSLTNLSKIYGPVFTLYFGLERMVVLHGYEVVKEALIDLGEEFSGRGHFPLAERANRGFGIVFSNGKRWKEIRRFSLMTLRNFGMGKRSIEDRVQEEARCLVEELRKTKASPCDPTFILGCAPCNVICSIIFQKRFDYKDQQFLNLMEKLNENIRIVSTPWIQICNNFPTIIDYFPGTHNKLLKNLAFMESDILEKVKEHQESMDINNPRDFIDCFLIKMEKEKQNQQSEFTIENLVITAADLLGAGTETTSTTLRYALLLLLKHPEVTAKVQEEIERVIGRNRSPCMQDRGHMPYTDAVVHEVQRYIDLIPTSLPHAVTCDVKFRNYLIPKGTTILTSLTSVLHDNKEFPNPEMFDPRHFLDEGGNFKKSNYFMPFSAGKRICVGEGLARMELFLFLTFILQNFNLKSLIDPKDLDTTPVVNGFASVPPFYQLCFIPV

On to `Cl.N#Cc1ccc2ccc(=O)n([C@H]3CC[C@H](NCc4cc5c(=O)oc6ccc(F)cc6c5[nH]4)CC3)c2c1` [Compound 2, 1-(trans-4-{[(8-fluoro-4-oxo-1,4-dihydro[1]benzopyrano[4,3-b]pyrrol-2-yl)methyl]amino}cyclohexyl)-2-oxo-1,2-dihydroquinoline-7-carbonitrile hydrochloride], for which the half-maximal inhibitory concentration (IC50) in data set [1] is over 300 µM; in data set [1] (same value in μg/ml) it was over 145 µg/mL. Besides, the results for the inhibition at 10 µM in data set [2] and in data set [3] were 69% and at most 35%, respectively. The compound further displayed an MBC/MIC in data set [4] of 2. For the same compound, the minimal bactericidal concentration (MBC) in data set [4] stood at 1 µg/mL.

`O=C1COc2ncc(F)cc2N1[C@H]1CC[C@H](NCc2cc3c(=O)oc4ccc(F)cc4c3[nH]2)CC1` [Compound 1, 8-fluoro-2-({[trans-4-(7-fluoro-2-oxo-2,3-dihydro-1H-pyrido[2,3-b][1,4]oxazin-1-yl)cyclohexyl]amino}methyl)[1]benzopyrano[4,3-b]pyrrol-4(1H)-one]: the results for the IC50 in data set [1] and in data set [1] (same value in μg/ml) were 9 µM and 4 µg/mL, respectively. In addition, the inhibition at 10 µM is 52% in data set [2] and at most 35% in data set [3]. In addition, the MBC/MIC in data set [4] is 2. In data set [4], this compound came in with a minimum bactericidal concentration (MBC) of 1 µg/mL (≈ 2.08 µM).

For the origin of these results see paper PMC7029851, “Antibacterial activity of novel dual bacterial DNA type II topoisomerase inhibitors” (PLoS ONE, 2020).
